Laboratory results reported in US12660819B2, “Herbicidal derivatives” (SYNGENTA CROP PROTECTION AG, priority 2020, dated 2026).

Legend:
Type in all cases: in vivo
[1] = system: Ipomoea hederacea (IPOHE); assay: Pre-emergence Test (glasshouse, percentage damage to the plant); settings: 1000 g/ha unless otherwise stated, five-point scale
Zea mays (ZEAMX) [2] = assay: Post-emergence Test (glasshouse, percentage damage to the plant); settings: post-emergence spray, 1000 g/ha unless otherwise stated, evaluated after 13 days
Summary of the method: (§1)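 Spray treatment of sown glasshouse pots at 1000 g/ha (default rate), vehicle acetone/water 50:50 plus 0.5% Tween 20. Read-out: percentage damage after 13 days, converted to a score where 5 denotes 81-100% and 1 denotes 0-20%.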

Setaria faberi (SETFA) [3] = assay: as above; settings: post-emergence spray, 1000 g/ha unless otherwise stated, evaluated after 13 days
Summary of the method: as §1

[4] = system: Abutilon theophrasti (ABUTH); assay: as above; settings: post-emergence spray, 1000 g/ha unless otherwise stated, evaluated after 13 days
Summary of the method: as §1

[5] = system: Amaranthus retoflexus (AMARE); assay: as above; settings: post-emergence spray, 1000 g/ha unless otherwise stated, evaluated after 13 days
Summary of the method: as §1

[6] = system: Ipomoea hederacea (IPOHE); assay: as above; settings: post-emergence spray, 1000 g/ha unless otherwise stated, evaluated after 13 days
Summary of the method: as §1

[7] = system: Echinochloa crus-galli (ECHCG); assay: as above; settings: post-emergence spray, 1000 g/ha unless otherwise stated, evaluated after 13 days
Summary of the method: as §1

Setaria faberi (SETFA) [8] = assay: Pre-emergence Test (glasshouse, percentage damage to the plant); settings: 1000 g/ha unless otherwise stated, five-point scale
[9] = system: Echinochloa crus-galli (ECHCG); assay: as above; settings: 1000 g/ha unless otherwise stated, five-point scale
[10] = system: Abutilon theophrasti (ABUTH); assay: as above; settings: 1000 g/ha unless otherwise stated, five-point scale
[11] = system: Amaranthus retoflexus (AMARE); assay: as above; settings: 1000 g/ha unless otherwise stated, five-point scale
Zea mays (ZEAMX) [12] = assay: as above; settings: 1000 g/ha unless otherwise stated, five-point scale

| SMILES | percentage damage to the plant, IPOHE [1] | Post-emergence Test ZEAMX, percentage damage to the plant (five-point scale) (Zea mays (ZEAMX) [2]) | Post-emergence Test SETFA, percentage damage to the plant (five-point scale) (Setaria faberi (SETFA) [3]) | Post-emergence Test ABUTH, percentage damage to the plant (five-point scale) [4] | Post-emergence Test AMARE, percentage damage to the plant (five-point scale) [5] | Post-emergence Test IPOHE, percentage damage to the plant (five-point scale) [6] | Post-emergence Test ECHCG, percentage damage to the plant (five-point scale) [7] | percentage damage to the plant, SETFA (Setaria faberi (SETFA) [8]) | percentage damage to the plant, ECHCG [9] | percentage damage to the plant, ABUTH [10] | percentage damage to the plant, AMARE [11] | percentage damage to the plant, ZEAMX (Zea mays (ZEAMX) [12]) |
| --- | --- | --- | --- | --- | --- | --- | --- | --- | --- | --- | --- | --- |
| CCn1c(C)c(-c2cccc(C(F)(F)F)c2)c(=O)c(C(=O)O)c1-c1ccc(Cl)c(Cl)n1 [Compound 150, 2-(5,6-dichloro-2-pyridyl)-1-ethyl-6-methyl-4-oxo-5-[3-(trifluoromethyl)phenyl] pyridine-3-carboxylic acid] | 0 | 1 (1=0-20%) | 1 (1=0-20%) | 0 | 0 | 2 (2=21-40%) | 1 (1=0-20%) | 0 | 0 | 0 | 0 | 1 (1=0-20%) |
| CCn1c(C)c(-c2ccc(C(F)(F)F)cc2)c(=O)c(C(=O)O)c1-c1ccc(Cl)c(Cl)n1 [Compound 151, 2-(5,6-dichloro-2-pyridyl)-1-ethyl-6-methyl-4-oxo-5-[4-(trifluoromethyl)phenyl] pyridine-3-carboxylic acid] | 5 (5=81-100%) | 2 (2=21-40%) | 4 (4=61-80%) | 3 (3=41-60%) | 0 | 3 (3=41-60%) | 3 (3=41-60%) | 4 (4=61-80%) | 4 (4=61-80%) | 1 (1=0-20%) | 1 (1=0-20%) | 2 (2=21-40%) |
| CCOC(=O)c1c(-c2ccc(F)c(F)c2)n(CC)c(C)c(-c2ccc(Cl)cc2)c1=O [Compound 152, ethyl 5-(4-chlorophenyl)-2-(3,4-difluorophenyl)-1-ethyl-6-methyl-4-oxo-pyridine-3-carboxylate] | 0 | 0 | 0 | 0 | 0 | 0 | 0 | 0 | 0 | 0 | 0 | 0 |
| CCn1c(C)c(-c2ccc(Cl)cc2F)c(=O)c(C(=O)O)c1-c1ccc(Cl)c(Cl)c1 [Compound 153, 5-(4-chloro-2-fluoro-phenyl)-2-(3,4-dichlorophenyl)-1-ethyl-6-methyl-4-oxo-pyridine-3-carboxylic acid] | 4 (4=61-80%) | 5 (5=81-100%) | 5 (5=81-100%) | 5 (5=81-100%) | 5 (5=81-100%) | 5 (5=81-100%) | 5 (5=81-100%) | 5 (5=81-100%) | 5 (5=81-100%) | 5 (5=81-100%) | 5 (5=81-100%) | 4 (4=61-80%) |
| CCn1c(C)c(-c2ccc(Cl)cc2OC)c(=O)c(C(=O)O)c1-c1ccc(Cl)c(Cl)c1 [Compound 154, 5-(4-chloro-2-methoxy-phenyl)-2-(3,4-dichlorophenyl)-1-ethyl-6-methyl-4-oxo-pyridine-3-carboxylic acid] | 3 (3=41-60%) | 3 (3=41-60%) | 4 (4=61-80%) | 4 (4=61-80%) | 4 (4=61-80%) | 4 (4=61-80%) | 4 (4=61-80%) | 4 (4=61-80%) | 5 (5=81-100%) | 3 (3=41-60%) | 1 (1=0-20%) | 2 (2=21-40%) |
| CCn1c(C)c(-c2ccc(F)cc2C)c(=O)c(C(=O)O)c1-c1ccc(Cl)c(Cl)c1 [Compound 155, 2-(3,4-dichlorophenyl)-1-ethyl-5-(4-fluoro-2-methyl-phenyl)-6-methyl-4-oxo-pyridine-3-carboxylic acid] | 1 (1=0-20%) | 4 (4=61-80%) | 4 (4=61-80%) | 4 (4=61-80%) | 3 (3=41-60%) | 4 (4=61-80%) | 4 (4=61-80%) | 5 (5=81-100%) | 5 (5=81-100%) | 2 (2=21-40%) | 1 (1=0-20%) | 1 (1=0-20%) |
